Source: patent publication US10156560B1, “Locomotive biological machines” (The Board of Trustees of the University of Illinois, priority 2013, dated 2018)
Entries after “also recorded” stand apart in the source; their conditions may differ.

How the values were obtained:
Format in all cases: cell-based
C2C12 myoblasts [1] = assay: Differentiation, viability (MTS) and proliferation in muscle strips
Description: After 7 days, the myoblasts were induced to differentiate by switching to high-glucose DMEM supplemented with 10% horse serum (Lonza) and 50 ng/mL insulin-like growth factor-1 (IGF-1, Sigma). A protease inhibitor, aminocaproic acid (1 mg/mL, Sigma) was added to the growth and differentiation medium to prevent degradation of the extracellular matrix proteins by the cells. Differentiated, multinucleated myotubes were distributed throughout muscle strips supplemented with IGF-1.
An MTS assay was used to evaluate cell viability over time. Muscle strips comprising […] and supplemented with IGF-1 and aminocaproic acid were incubated with MTS (Promega) and phenazine methosulfate (Sigma-Aldrich) in DMEM without phenol red for 4 h at 37° C. Absorbance of MTS formazan product formation was measured at 490 nm using a Synergy HT microplate reader (BioTek) for four different time points and normalized to day 0 (day of cell seeding). The relative absorbance of muscle strips indicated a viability of cells within the muscle strip of 85.76±10.74% and 79.71±14.78% after days 6 and 9, respectively.

C2C12 muscle strips [2] = assay: Lifetime of fibrin muscle strip bio-bots (days until fracture)
Description: Similarly, the lifetime of fibrin muscle strip bio-bots (i.e. days until fracture of the muscle strip) was affected by the presence or absence of 50 ng/mL IGF-1 and/or 1 mg/mL aminocaproic acid. There was a significant increase in the fibrin muscle strip lifetime with the addition of 1 mg/mL aminocaproic acid (25±1.15 days) compared to the control of 10% HS (8.75±7.63).

C2C12 muscle strips [3] = assay: Passive tension force of muscle strips from beam deflection
Source text: Using Euler-Bernoulli linear bending theory, a formula was derived relating the observed hydrogel beam deflection to the muscle-generated passive tension force. Assuming negligible rotation in the beam and a small angle approximation, equating the applied moment M to tension P times the moment arm I from the muscle strip to the beam reduced the second-order differential equation to
[formula] where I is the moment of inertia of the rectangular cross-section and y is the horizontal deflection of the beam. Boundary conditions were applied by assuming zero deflection at ends of the beam (L=0) and maximum deflection δmas at the center (L/2).
[formula] Beam dimensions, moment arm, and maximum deflection were averaged from 3 measurements of each device using the Measure Tool in ImageJ (NIH). Solving for P yielded the relation:
Finite element analysis was then used to model and simulate global displacement of the beam and pillars in response to an applied force; the simulated deflection values differed 18-19% from actual measurements.
To determine an optimal matrix system for engineered muscle functionality, the passive tension forces generated by collagen- and fibrin-based cell-matrix systems were compared. In muscle strips comprising the same number of cells, a significant increase in passive tension in those containing fibrin (629.3±8.2 μN) compared to collagen (534.2±5.8 μN) was observed. Advantageously, fibrin polymerizes relatively quickly when compared to other ECM proteins, and it can undergo large deformations without breaking (Liu et al., 2006, Science 313(5787):634; Janmey et al., 2009, J R Soc Interface 6(30):1-10). […]
This significant increase in force production was likely due to a greater number of differentiated myotubes in muscle strips supplemented with IGF-1. A normalized stress in the muscle strips with IGF-1 was calculated by dividing the passive tension by the cross-sectional area of the tissue, which averaged 1.2±0.04 mm^2 (n=9). […]

C2C12 muscle strips [4] = assay: Electrically paced actuation of fibrin-based muscle strips
Description: To externally control muscle contraction and bio-bot locomotion, a custom-designed setup (Bajaj et al., 2011, Integr Biol (Camb) 3(9):897-909) was used to stimulate reproducible contraction of excitable cells within the muscle strip with a bipolar electrical pulse train (FIGS. 30A and 30B). The output from a waveform generator was amplified through an AD797 inverting amplifier. A capacitor C was added in series to minimize electrolysis of the media by converting the square pulse to a biphasic pulse; the system was then treated as an RC circuit (FIG. 30B). A 35-mm culture dish was modified to allow Pt electrodes of diameter 0.762 mm to pass through the lid of the dish. The average resistance of the electrical stimulation medium (DMEM without serum) was calculated by measuring the time constant τ from the oscilloscope and dividing by C for each volume at 23° C. and 37° C. The conductivity of the medium was measured using a pH/Conductivity meter (Orion 4-Star, Thermo Scientific), at 23° C. and 37° C. During stimulation, the bio-bot was placed in 4 mL of warm electrical stimulation medium between the positive and ground electrodes, and a current was applied perpendicular to the long axis, with stimulation frequencies up to 10 Hz and never exceeding more than half of the sampling frequency, per the Nyquist criterion. Bio-bots were stimulated with bipolar electrical pulses of 20 V amplitude (21.6 V/cm field strength) and 50 ms pulse width. Simultaneous imaging was achieved by positioning the dish on the stage of a stereoscope. Top-view movies were acquired with a stereomicroscope with a digital microscope camera at 9.2 fps. Side-view movies were acquired using a camcorder (Handycam DCR-SR65, Sony) at 30 fps. Electrodes were sterilized in 70% ethanol and rinsed with PBS between experiments.
Twitch contractions were observed below 8-10 Hz and tetanus above this upper frequency limit.
A Kelvin-Voigt viscoelasticity model that correlated the observed cyclic displacement to the contractile force was used to extract the active tension generated by IGF-1 supplemented muscle strips in response to electrical stimulation. The active stress generated by the muscle strip was computed as a function of the strain ε(t) and strain rate dε(t)/dt observed in the hydrogel beam with viscosity η. The time-varying displacement data was converted into time-varying strain, and the following equation was used to compute the resulting active stress: […]
The range of active tension during contraction decreased with increasing stimulation frequency, from a dynamic fluctuation of 198.68 μN during 1 Hz stimulation to 109.48 μN during 4 Hz stimulation. The active tension data followed a positive force-frequency relationship in which the magnitude of the active tension exerted by the muscle increased, even while the range of pillar motion decreased.

C2C12 myoblasts [5] = assay: Compaction and snapping of collagen-based 3D skeletal muscle strips
Description: C2C12 myoblasts were transfected with pAAV-Cag-Chr2-GFP-2A-Puro with Lipofectamine 2000 (Invitrogen, Carlsbad, Calif.) and grown under puromycin (2.5 μg/mL) selection for 2 weeks. Before cell seeding, bio-bots were positioned beam-down in polymerized holders in a 35-mm cell culture dish and aspirated of excess liquid. A liquid suspension of C2C12 skeletal muscle myoblasts and ECM proteins was added around the pillars of the bio-bot and polymerized via gelation of the matrix proteins. Embedded cells exerted traction forces on the fibrous proteins via integrin attachments to compact the matrix into a muscle strip over time, and the capped pillars acted as a physical anchor for the muscle strip to mimic the in vivo musculoskeletal arrangement in which force transmission occurs from a contracting muscle to bone through a connecting tendon. The ECM was a mixture of i) type I collagen or fibrin and ii) Matrigel™, a composition of laminin, entactin, and type IV collagen. Collagen and fibrin were chosen because naturally-derived hydrogels undergo macro-scale compaction when mixed with cells, leading to a substantially higher cell density and unidirectional cell alignment between the posts. For collagen strips, a cooled suspension of liquid type I collagen from rat tail (0.8, 1.4, or 2.0 mg/mL, BD Biosciences) was mixed with equal parts ice-cold growth medium and neutralized with 0.01 N NaOH. Pelleted cells (1.0-10.0×10^6 cells/mL) were resuspended in ice-cold growth medium and mixed with Matrigel™ (30% v/v, BD Biosciences). Liquid neutralized type I collagen was mixed thoroughly with cells (C2C12 myoblasts (ATCC)) and Matrigel™, and the mixtures were added to each holder. For fibrin muscle strips, an ice-cold cell-matrix solution of Matrigel™ (30% of total cell-matrix volume), fibrinogen (4 mg/mL, Sigma-Aldrich), thrombin from bovine plasma (0.5 U/mg fibrinogen, Sigma-Aldrich), and C2C12s suspended in GM at a concentration of 5×10^6 cells/mL were added to each holder. The post/beam assemblies were then incubated at 37° C. to induce collagen/fibrin polymerization, and growth medium was added to each assembly upon gelation. Time-lapsed compaction was captured with a stereomicroscope (MZ FL III, Leica).
To confirm that gel compaction was caused by traction forces from the cells, muscle strips were treated with 50 μg/mL blebbistatin (FIG. 27A). Blebbistatin blocks myosin II activity in the cells, which prevents inward translation of the traction forces. […] The muscle strips treated with IGF-1 (50 ng/mL) compacted rapidly but snapped near the posts within 24 h (FIG. 27C). Thus, the formation of muscle strips was cell-induced through passive tension around the two posts. […]

## IGF-1: insulin-like growth factor 1, a potent mitogen
C2C12 myoblasts [1]; 50 ng/mL
  portion of the fibrin-based muscle strip occupied by cells: more than doubled
C2C12 myoblasts [1]; day 9
  cell proliferation compared to control muscle strips: enhanced cell proliferation
C2C12 muscle strips [2]; 50 ng/mL
  decrease in days until fracture compared to the 1 mg/mL ACA condition: 22.0%
C2C12 muscle strips [2]; 50 ng/mL, control 10% HS
  decrease in days until fracture compared to the control: 51.43%
C2C12 muscle strips [3]; fibrin-based muscle strips
  increase in passive tension force compared to control without IGF-1: 70.7%
C2C12 muscle strips [3]; fibrin-based muscle strips supplemented with IGF-1
  passive tension force: 992.7±34.3 μN
C2C12 muscle strips [3]; muscle strips with IGF-1, tension divided by cross-sectional area
  passive stress: 0.84±0.03 kPa
C2C12 muscle strips [4]; 1 Hz stimulation
  range of active tension during contraction: 198.68 μN
C2C12 muscle strips [4]; 4 Hz stimulation
  range of active tension during contraction: 109.48 μN
C2C12 muscle strips [4]; stimulation 1 Hz
  Output: 1.01 ± 0.003 Contractions/s
C2C12 muscle strips [4]; stimulation 2 Hz
  Output: 2.01 ± 0.01 Contractions/s
C2C12 muscle strips [4]; stimulation 4 Hz
  Output: 3.95 ± 0.05 Contractions/s

## NCCCCCC(=O)O [aminocaproic acid, ε-aminocaproic acid]
C2C12 muscle strips [2]; 1 mg/mL
  fibrin muscle strip lifetime (days until fracture): 25 ± 1.15 days
C2C12 myoblasts [5]; 1 mg/mL in medium
  snapping of collagen muscle strip: remained intact
  time muscle strip remained stable: > 14 days
C2C12 myoblasts [5]; 1 mg/mL in medium, listed as EAC
  snapping of collagen muscle strip: prevented the muscle strip from snapping

## Cc1ccc2c(c1)C(=O)C1(O)CCN(c3ccccc3)C1=N2 (centres unmarked) [blebbistatin]
C2C12 myoblasts [5]; blebbistatin in medium, 48 hours of culture
  compaction of muscle strip: lack of compaction; also recorded: prevented its compaction
